# Test results published in patent publication US10596160B2, “Compositions, methods and uses for the treatment of diabetes and related conditions by controlling blood glucose level” (PHARNEXT, priority 2012, dated 2020).
# Entries after “also recorded” stand apart in the source; their conditions may differ.
# What was measured:
# [1] = system: TNFα-induced insulin resistant 3T3-L1 differentiated adipocytes; test: Glucose uptake in TNFα-induced insulin resistant 3T3-L1 differentiated adipocytes; type: cell-based; conditions: for enhancement of glucose uptake: drug alone, vs non-treated insulin-resistant cells (TNFα); for enhancement of glucose uptake, combination experiment / enhancement of glucose uptake, combination with metformin: vs TNFα cells; for enhancement of glucose uptake, combination experiment: Dunnett's test; for enhancement of glucose uptake, combination with metformin: combined or alone at the same concentrations
# Protocol: 3T3L1 fibroblasts were maintained in DMEM 4.5 g/L glucose supplemented with 5% calf serum donor, 5% newborn calf serum, 100 U/mL penicillin, and 100 μg/mL streptomycin at 37° C. under a 10% CO2 atmosphere. Cells were grown on 24-well plates at a density of 2560 cells/well in 0.5 mL of growth medium (DMEM 4.5 g/L glucose supplemented with 10% FCS, 100 U/mL penicillin, and 100 μg/mL streptomycin). […] Fresh media were replaced after two days.
# Glucose uptake was measured by quantification of incorporated radiolabeled glucose, after an incubation step with 2-deoxy-D[1,2^3H] glucose for 5 min. Glucose uptake was arrested by two washing steps in ice-cold PBS 1×, then were solubilized in 0.1N NaOH for 30 min. Cell-associated radioactivity was then counted using a MicroBeta counter after adding 600 μL per well of scintillant (Optiphase SuperMix3).
# In parallel, protein quantification was determined by a colorimetric assay derived from the Lowry method. Results are expressed in nmol of glucose incorporated/5 mn/mg of protein and in % of control or basal condition (100%).
# hepatocytes = test: Glucose production by hepatic cells; type: cell-based, rat; conditions: 10 μM
# Protocol: Hepatocytes are isolated from 24 h-fasted male Wistar rats (200-250 g body weight) by ex situ liver perfusion in the presence of collagenase. Cell viability is validated by a trypan blue exclusion test. […] After plating, the medium is removed and cells are cultured for 16 h in RPMI medium without glucose (supplemented with the tested drugs for long-term evaluation). The following day, hepatic glucose production is assessed in Krebs-Ringer Bicarbonate HEPES buffer (KRBH; pH 7.4) in the presence of the neoglucogenic substrates (lactate 10 mM and pyruvate 1 mM) and the tested molecules for 4 h (short-term).
# Supernatants are collected and glucose concentrations are determined using a glucose oxidase kit (Instrumentation Laboratory 0018250840). In parallel, protein quantification is performed using the colorimetric Lowry method.
# Results are expressed in nmol glucose/mg protein and % of control condition (KLP: KRBH containing lactate and pyruvate).
# [2] = system: beta pancreatic INS-1 cells; test: Prevention of beta cells apoptosis (ssDNA apoptosis detection kit); type: cell-based; set-up: concentration or dose not given beside the values; conditions: 1 h pre-incubation then 24 h in apoptotic conditions, drugs tested alone
# Protocol: The beta pancreatic INS-1 cells have been selected for this study. The cells are cultured in complete medium, RPMI 1640 10 mM glucose supplemented with 1 mM sodium pyruvate, 50 μM 2-mercaptoethanol, 2 mM glutamine, 10 mM HEPES, 100 IU/mL penicillin, 100 μg/mL streptomycin and 10% heat-inactivated fetal calf serum (FCS), as described by Asfari et al. (23). INS-1 cells are plated (4.5×10^4 cells/well) in 96-well poly-ornithine coated plates and cultured at 37° C. in a humidified atmosphere of 95% air/5% CO2. The day after, cells are pre-incubated with the tested molecules for 1 h. Then, after a medium change, cells are cultured for 24 h in a medium containing the tested molecules and 30 mM glucose, 0.05 mM myristic acid, 25 ng/mL INF, 25 ng/mL TNF and 5 ng/mL IL.
# The efficacy of compounds to prevent apoptosis is then evaluated by the highly specific apoptosis detection kit from Chemicon (Ref. APT225). This procedure is based on the detection of single-stranded DNA (ssDNA) which is a specific marker of apoptotic cells (24).
# Results are expressed in optical density (OD) arbitrary unit and % of reduction of the apoptosis induced by apoptotic condition. Following a Dunnett t-test, all compounds showing a significant decrease in % of apoptotic cells compared to apoptotic control conditions are considered active.
# [3] = system: beta pancreatic INS-1 cells; test: Insulin secretion in response to glucose stimulation; type: cell-based, rat
# Protocol: The cells are cultured in complete medium, RPMI 1640 10 mM glucose supplemented with 1 mM sodium pyruvate, 50 μM 2-mercaptoethanol, 2 mM glutamine, 10 mM HEPES, 100 IU/mL penicillin, 100 μg/mL streptomycin and 10% heat-inactivated fetal calf serum (FCS), as described by Asfari et al. (23). […] After 3 days of culture at 37° C. in a humidified atmosphere of 95% air/5% CO2, the medium is removed and cells are cultured for 16 h in a medium containing 5 mM glucose, 1% FCS (and the tested drugs for long-term evaluation).
# The cells are washed again with KRBH and incubated for 1 h in KRBH 0.1% BSA containing 3.5 mM glucose and the tested molecules.
# Standards, samples and controls are added to the appropriate wells with a horseradish peroxidase enzyme-labeled monoclonal antibody (conjugate). After incubation, the microplates are washed to remove unbound conjugate and a TMB substrate solution is added to react with the bound conjugate. Finally, after addition of a stop solution, the optical density is measured at 450 nm using a reference wavelength of 620 nm. The intensity of the yellow color is directly proportional to the amount of insulin within the samples.
# [4] = system: differentiated 3T3-L1 adipocyte cells; test: Glucose uptake in 3T3-L1 adipocyte cells; type: cell-based; conditions: 3T3-L1 cells
# Protocol: 3T3-L1 preadipocyte cells were cultured in DMEM containing 1% penicillin-streptomycin (PS) and 10% bovine calf serum at 37° C. in a 5% CO2 atmosphere. […] Differentiation, as measured by the expression of adipogenic markers and the appearance of lipid droplets, usually reaches completion between days 4 and 8. Glucose uptake activity was analyzed by measuring the uptake of radiolabeled glucose. Differentiated 3T3-L1 adipocytes grown in 12-well plates were washed twice with serum-free DMEM and incubated for 2 h at 37° C. with 1 mL DMEM containing 0.1% BSA. […] Next, cells were incubated with or without drugs for different durations in order to evaluate their short-term and long-term effects. To evaluate their short-term effect, cells were incubated with drugs of the invention for 4 hours at 37° C. To evaluate the long-term effect of drugs of the invention, the day prior to the test, cells were pre-incubated with or without drugs for 16 h. The day after, prior to the test, cells were washed and incubated in the presence of the tested molecules for 4 h more. […] After 20 min, glucose uptake was terminated by washing the cells three times with cold PBS. The cells were lysed through incubation for 20 min at 37° C. with 0.7 mL of Triton X-100. Level of radioactivity in the cell lysates was determined using a scintillation counter. Protein quantification was performed by a colorimetric assay derived from the Lowry method.
# [5] = system: H-2 Kb mouse muscle cells; test: Glucose uptake in mouse muscle cells; type: cell-based; conditions: H-2 Kb cells, vs non-treated cells
# Protocol: For differentiation in […], cells are switched to non-permissive culture conditions (37° C. in a humidified atmosphere of 95% air/5% CO2; DMEM 5.5 mM D-glucose supplemented with 2% FCS, 10% horse serum, 2% glutamine, 1% chicken embryo, 100 U/mL penicillin, and 100 μg/mL streptomycin).
# For long-term effect evaluation, the day before glucose uptake assay, cells are incubated in DMEM 5.5 mM D-glucose supplemented with 10% horse serum, 2% SVF, 1% chicken embryo, and 2% glutamine in the presence of the tested molecules for 16 h. […]
# For short-term effect evaluation, 4 hours prior to the glucose test, cells are washed and incubated in a serum-free medium (DMEM) containing 5.5 mM D-glucose and the tested molecules. Then glucose uptake is measured by incubation of the cells for 5-10 min with radiolabeled 2-deoxy-D-[1,2^3H] glucose in Krebs-Ringer HEPES buffer (KRBH; pH 7.4), 0.1% Bovine Serum Albumin (BSA), and fraction V (Sigma, A-4503). […] Cell-associated radioactivity is then counted and protein quantification is determined using the colorimetric Lowry method. Glucose uptake is estimated by measuring the radioactivity incorporated to the cells by a MicroBeta counter after adding 600 μL per well of scintillant (Optiphase SuperMix3).
# Protein quantification is performed by a colorimetric assay derived from the Lowry method. […]
# [6] = drugs combined at a dose as low as 3.3 nM, or used individually
# [7] = drugs combined at a dose as low as 10 nM, or used individually
# [8] = fenspiride 3.3 nM and metformin 100 μM
structure (smiles),measurement,setting,value
Cc1c(Cl)cccc1Nc1ccccc1C(=O)O [tolfenamic acid],enhancement of glucose uptake,[1]; 10 nM,+127%
same,enhancement of glucose uptake,[1]; 100 nM,improvement
same,enhancement of glucose uptake,[1]; 1 μM,improvement
same,"enhancement of glucose uptake, combination experiment",[1]; [6],No significant effect
same,"enhancement of glucose uptake, combination experiment",[1]; [7],No significant effect
O=C[C@@H](O)[C@@H](O)[C@H](O)[C@H](O)CO [D-mannose],reduction of glucose production,hepatocytes; short-term,−22%
same,Percentage of apoptosis reduction,[2],129%
NCC(CC(=O)O)c1ccc(Cl)cc1 (racemic) [baclofen],Percentage of apoptosis reduction,[2],84%
Cc1cccc(C)c1OCC(C)N (stereo not shown) [mexiletine],Percentage of apoptosis reduction,[2],74%
C[C@@H](NCCCc1cccc(C(F)(F)F)c1)c1cccc2ccccc12 [cinacalcet],enhancement of insulin secretion,"[3]; long-term pre-treatment, 1 μM",+55%
same,Percentage of apoptosis reduction,[2],167%
c1cnc(N2CCN(Cc3ccc4c(c3)OCO4)CC2)nc1 [piribedil],enhancement of glucose uptake,"[4]; short-term, 10 nM",+68%
C=CCNc1nc(NCC=C)nc(N2CCN(C(c3ccc(F)cc3)c3ccc(F)cc3)CC2)n1 [almitrine],enhancement of glucose uptake,"[4]; long-term, 1 μM",+69%
same,enhancement of glucose uptake,"[5]; short-term, 1 μM",+80%
same,Percentage of apoptosis reduction,[2],103%
Cc1cccc(Nc2ccncc2S(=O)(=O)NC(=O)NC(C)C)c1 [torasemide],enhancement of glucose uptake,[1]; 0.37 nM,+121%
same,enhancement of glucose uptake,[1]; 1 nM,+123%
same,enhancement of glucose uptake,[1]; 3.3 nM,+129%
same,Percentage of apoptosis reduction,[2],67%
C[C@@H]1CC(=O)NN=C1c1ccc(NN=C(C#N)C#N)cc1 [levosimendan],Percentage of apoptosis reduction,[2],118%
CO[C@]12C[C@@H](COC(=O)c3cncc(Br)c3)CN(C)[C@@H]1Cc1cn(C)c3cccc2c13 [nicergoline],enhancement of glucose uptake,"[5]; long-term, 10 μM",+28%
same,Percentage of apoptosis reduction,[2],112%
CN(C)CC[C@@H](c1ccc(Br)cc1)c1ccccn1 [dexbrompheniramine],Percentage of apoptosis reduction,[2],76%
CCN(CC)CCOCCOC(=O)C1(c2ccccc2)CCCC1 [carbetapentane],enhancement of glucose uptake,"[4]; short-term, 0.1 μM (100 nM)",+58%
same,Percentage of apoptosis reduction,[2],103%
CCN(CC)C(=O)N1CCN(C)CC1 [diethylcarbamazine],Percentage of apoptosis reduction,[2],44%
O=C1NCC2(CCN(CCc3ccccc3)CC2)O1 [fenspiride],enhancement of glucose uptake,[1]; 0.37 nM,improvement
same,enhancement of glucose uptake,[1]; 1 nM,+130%
same,enhancement of glucose uptake,[1]; 3.3 nM,improvement
same,"enhancement of glucose uptake, combination experiment",[1]; [6],No significant effect
same,"enhancement of glucose uptake, combination experiment",[1]; [7],No significant effect
same,"enhancement of glucose uptake, combination with metformin",[1]; [8],does not lead to any significant improvement; also recorded: No significant effect
Nc1nc(N)c2nc(-c3ccccc3)c(N)nc2n1 [triamterene],"enhancement of glucose uptake, combination experiment",[1]; [7],No significant effect
same,enhancement of insulin secretion,"[3]; short-term pre-treatment, 10 μM",+37%
same,Percentage of apoptosis reduction,[2],64%
CN(C)C(=N)N=C(N)N [metformin],"enhancement of glucose uptake, combination with metformin",[1]; [8],does not lead to any significant improvement; also recorded: No significant effect
same,"enhancement of glucose uptake, combination with metformin",[1]; ifenprodil 3.3 nM and metformin 100 μM,does not lead to any significant improvement; also recorded: No significant effect
Cc1ccc(C(=O)C(C)CN2CCCCC2)cc1 (stereo not shown) [tolperisone],Percentage of apoptosis reduction,[2],78%
CN1CCCC(n2nc(Cc3ccc(Cl)cc3)c3ccccc3c2=O)CC1 (stereo not shown) [azelastine],reduction of glucose production,hepatocytes; long-term,−36%
same,Percentage of apoptosis reduction,[2],81%
